Measured values as given in patent publication US10543212B2, “Substituted amines for treating cardiac diseases” (Cardurion Pharmaceuticals, LLC, priority 2017, dated 2020).
pIC50: −log10 of the molar value.

The compounds below were run against T1, Full-length, GST-tagged, human CaMKIIδ (Homo sapiens, UniProt Q13557) (assay: CaMKIIδ binding assay (TR-FRET with BODIPY-labeled probe ligand)). Conditions: CaMKIIδ binding assay, results of Table 2.
T1 construct: Full-Length, Glutathione-S-Transferase(GST)-Tagged, Human CaMKIIδ was purchased from Carna Biosciences; purchased Carna Biosciences 02-111
T1 sequence (Q13557 1-478 isoform Q13557-12): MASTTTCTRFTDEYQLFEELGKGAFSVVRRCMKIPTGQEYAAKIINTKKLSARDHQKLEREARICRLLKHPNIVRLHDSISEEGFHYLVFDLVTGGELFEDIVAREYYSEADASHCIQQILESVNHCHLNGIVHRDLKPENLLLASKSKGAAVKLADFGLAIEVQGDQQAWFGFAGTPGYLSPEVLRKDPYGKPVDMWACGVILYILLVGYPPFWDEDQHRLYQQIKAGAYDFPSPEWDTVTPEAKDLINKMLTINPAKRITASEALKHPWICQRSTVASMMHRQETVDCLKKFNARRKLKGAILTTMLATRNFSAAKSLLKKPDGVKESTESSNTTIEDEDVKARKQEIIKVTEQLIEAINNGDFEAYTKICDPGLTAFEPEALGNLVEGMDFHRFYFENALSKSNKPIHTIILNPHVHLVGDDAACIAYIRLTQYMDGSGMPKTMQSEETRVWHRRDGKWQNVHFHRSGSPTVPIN
How it was run: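 Compounds were tested as 4-fold, eight-point series for 1 hr at room temperature, and IC50 was obtained by logistic fitting against a 3 μM parent-compound control. Signal came from displacement of a 300 nM BODIPY ligand from 0.5 nM GST-CaMKIIδ, detected via Tb-anti-GST in calmodulin/Ca2+ (pH 7.6).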
In the case of `C[C@@H](Cn1cnnn1)Oc1cc(-c2cnc(Nc3cn(C4CCN(CC5CC5)CC4)nc3C(F)(F)F)nc2)ccc1Cl` [Example 549, (S)-5-(3-((1-(1H-tetrazol-1-yl)propan-2-yl)oxy)-4-chlorophenyl)-N-(1-(1-(cyclopropylmethyl)piperidin-4-yl)-3-(trifluoromethyl)-1H-pyrazol-4-yl)pyrimidin-2-amine], the pIC50 was over 8.00.
For `C[C@@H](Cn1cnnn1)Oc1cc(-c2cnc(Nc3cn(C4CCN(Cc5ccncc5)CC4)nc3C(F)(F)F)nc2)ccc1Cl` [Example 550, (S)-5-(3-((1-(1H-tetrazol-1-yl)propan-2-yl)oxy)-4-chlorophenyl)-N-(1-(1-(pyridin-4-ylmethyl)piperidin-4-yl)-3-(trifluoromethyl)-1H-pyrazol-4-yl)pyrimidin-2-amine], the pIC50 was 7.00 to 8.00.
For `C[C@@H](Cn1cnnn1)Oc1cc(-c2cnc(Nc3cn(C4CCN(Cc5nccs5)CC4)nc3C(F)(F)F)nc2)ccc1Cl` [Example 551, (S)-5-(3-((1-(1H-tetrazol-1-yl)propan-2-yl)oxy)-4-chlorophenyl)-N-(1-(1-(thiazol-2-ylmethyl)piperidin-4-yl)-3-(trifluoromethyl)-1H-pyrazol-4-yl)pyrimidin-2-amine], the pIC50 was 7.00 to 8.00.
Compound `C[C@@H](Cn1cnnn1)Oc1cc(-c2cnc(Nc3cn(C4CCN(C5CCOC5)CC4)nc3C(F)(F)F)nc2)ccc1Cl` (stereo partly drawn) [Example 552, 5-(3-(((S)-1-(1H-tetrazol-1-yl)propan-2-yl)oxy)-4-chlorophenyl)-N-(1-(1-(tetrahydrofuran-3-yl)piperidin-4-yl)-3-(trifluoromethyl)-1H-pyrazol-4-yl)pyrimidin-2-amine] has a pIC50 of over 8.00.
For `COCC(C)N1CCC(n2cc(Nc3ncc(-c4ccc(Cl)c(O[C@@H](C)Cn5cnnn5)c4)cn3)c(C(F)(F)F)n2)CC1` (stereo partly drawn) [Example 553, 5-(3-(((S)-1-(1H-tetrazol-1-yl)propan-2-yl)oxy)-4-chlorophenyl)-N-(1-(1-(1-methoxypropan-2-yl)piperidin-4-yl)-3-(trifluoromethyl)-1H-pyrazol-4-yl)pyrimidin-2-amine], the pIC50 was over 8.00.
`COC1CCCCC1N1CCC(n2cc(Nc3ncc(-c4ccc(Cl)c(O[C@@H](C)Cn5cnnn5)c4)cn3)c(C(F)(F)F)n2)CC1` (stereo partly drawn) [Example 554, 5-(3-(((S)-1-(1H-tetrazol-1-yl)propan-2-yl)oxy)-4-chlorophenyl)-N-(1-(1-(2-methoxycyclohexyl)piperidin-4-yl)-3-(trifluoromethyl)-1H-pyrazol-4-yl)pyrimidin-2-amine] gave a pIC50 of over 8.00.
With `C[C@@H](Cn1cnnn1)Oc1cc(-c2cnc(Nc3cn(C4CCN(C5CCC(F)(F)CC5)CC4)nc3C(F)(F)F)nc2)ccc1Cl` [Example 555, (S)-5-(3-((1-(1H-tetrazol-1-yl)propan-2-yl)oxy)-4-chlorophenyl)-N-(1-(1-(4,4-difluorocyclohexyl)piperidin-4-yl)-3-(trifluoromethyl)-1H-pyrazol-4-yl)pyrimidin-2-amine] the pIC50 was over 8.00.
For `C[C@@H](Cn1cnnn1)Oc1cc(-c2cnc(Nc3cn(C4CCN(C5CCOC(C)(C)C5)CC4)nc3C(F)(F)F)nc2)ccc1Cl` (stereo partly drawn) [Example 557, 5-(3-(((S)-1-(1H-tetrazol-1-yl)propan-2-yl)oxy)-4-chlorophenyl)-N-(1-(1-(2,2-dimethyltetrahydro-2H-pyran-4-yl)piperidin-4-yl)-3-(trifluoromethyl)-1H-pyrazol-4-yl)pyrimidin-2-amine], the pIC50 was over 8.00.
With `C[C@@H](Cn1cnnn1)Oc1cc(-c2cnc(Nc3cn(C4CCN(C5CCN(C6CC6)CC5)CC4)nc3C(F)(F)F)nc2)ccc1Cl` [Example 558, (S)-5-(3-((1-(1H-tetrazol-1-yl)propan-2-yl)oxy)-4-chlorophenyl)-N-(1-(1′-cyclopropyl-[1,4′-bipiperidin]-4-yl)-3-(trifluoromethyl)-1H-pyrazol-4-yl)pyrimidin-2-amine] the pIC50 was over 8.00.
Work on `C[C@@H](Cn1cnnn1)Oc1cc(-c2cnc(Nc3cn(C4CCN(C5CCN(C)CC5)CC4)nc3C(F)(F)F)nc2)ccc1Cl` [Example 559, (S)-5-(3-((1-(1H-tetrazol-1-yl)propan-2-yl)oxy)-4-chlorophenyl)-N-(1-(1'-methyl-[1,4'-bipiperidin]-4-yl)-3-(trifluoromethyl)-1H-pyrazol-4-yl)pyrimidin-2-amine] yielded a pIC50 of over 8.00.
`C[C@@H](Cn1cnnn1)Oc1cc(-c2cnc(Nc3cn(C4CCN(Cc5ccsc5)CC4)nc3C(F)(F)F)nc2)ccc1Cl` [Example 560, (S)-5-(3-((1-(1H-tetrazol-1-yl)propan-2-yl)oxy)-4-chlorophenyl)-N-(1-(1-(thiophen-3-ylmethyl)piperidin-4-yl)-3-(trifluoromethyl)-1H-pyrazol-4-yl)pyrimidin-2-amine] showed a pIC50 of over 8.00.
With `C[C@@H](Cn1cnnn1)Oc1cc(-c2cnc(Nc3cn(C4CCN(Cc5cc[nH]n5)CC4)nc3C(F)(F)F)nc2)ccc1Cl` [Example 561, (S)-N-(1-(1-((1H-pyrazol-3-yl)methyl)piperidin-4-yl)-3-(trifluoromethyl)-1H-pyrazol-4-yl)-5-(3-((1-(1H-tetrazol-1-yl)propan-2-yl)oxy)-4-chlorophenyl)pyrimidin-2-amine] the pIC50 was over 8.00.
With `C[C@@H](Cn1cnnn1)Oc1cc(-c2cnc(Nc3cn(C4CCN(C5COC5)CC4)nc3C(F)(F)F)nc2)ccc1Cl` [Example 562, (S)-5-(3-((1-(1H-tetrazol-1-yl)propan-2-yl)oxy)-4-chlorophenyl)-N-(1-(1-(oxetan-3-yl)piperidin-4-yl)-3-(trifluoromethyl)-1H-pyrazol-4-yl)pyrimidin-2-amine] the pIC50 was 7.00 to 8.00.
`C[C@@H](Cn1cnnn1)Oc1cc(-c2cnc(Nc3cn(C4CCN(Cc5cccnc5)CC4)nc3C(F)(F)F)nc2)ccc1Cl` [Example 563, (S)-5-(3-((1-(1H-tetrazol-1-yl)propan-2-yl)oxy)-4-chlorophenyl)-N-(1-(1-(pyridin-3-ylmethyl)piperidin-4-yl)-3-(trifluoromethyl)-1H-pyrazol-4-yl)pyrimidin-2-amine] gave a pIC50 of 7.00 to 8.00.
With `C[C@@H](Cn1cnnn1)Oc1cc(-c2cnc(Nc3cn(C4CCN(Cc5ccccn5)CC4)nc3C(F)(F)F)nc2)ccc1Cl` [Example 564, (S)-5-(3-((1-(1H-tetrazol-1-yl)propan-2-yl)oxy)-4-chlorophenyl)-N-(1-(1-(pyridin-2-ylmethyl)piperidin-4-yl)-3-(trifluoromethyl)-1H-pyrazol-4-yl)pyrimidin-2-amine] the pIC50 was over 8.00.
`C[C@@H](Cn1cnnn1)Oc1cc(-c2cnc(Nc3cn(C4CCN(C5CCS(=O)(=O)CC5)CC4)nc3C(F)(F)F)nc2)ccc1Cl` [Example 565, (S)-4-(4-(4-((5-(3-((1-(1H-tetrazol-1-yl)propan-2-yl)oxy)-4-chlorophenyl)pyrimidin-2-yl)amino)-3-(trifluoromethyl)-1H-pyrazol-1-yl)piperidin-1-yl)tetrahydro-2H-thiopyran 1,1-dioxide] was tested, and the pIC50 was over 8.00.
Compound `C[C@@H](Cn1cnnn1)Oc1cc(-c2cnc(Nc3cn(C4CCN(Cc5cccn5C)CC4)nc3C(F)(F)F)nc2)ccc1Cl` [Example 566, (S)-5-(3-((1-(1H-tetrazol-1-yl)propan-2-yl)oxy)-4-chlorophenyl)-N-(1-(1-((1-methyl-1H-pyrrol-2-yl)methyl)piperidin-4-yl)-3-(trifluoromethyl)-1H-pyrazol-4-yl)pyrimidin-2-amine] has a pIC50 of over 8.00.
For `C[C@@H](Cn1cnnn1)Oc1cc(-c2cnc(Nc3cn(C4CCN(Cc5cnn(C)c5)CC4)nc3C(F)(F)F)nc2)ccc1Cl` [Example 567, (S)-5-(3-((1-(1H-tetrazol-1-yl)propan-2-yl)oxy)-4-chlorophenyl)-N-(1-(1-((1-methyl-1H-pyrazol-4-yl)methyl)piperidin-4-yl)-3-(trifluoromethyl)-1H-pyrazol-4-yl)pyrimidin-2-amine], the pIC50 was over 8.00.
For `COc1ccc(C(=O)N2CCN(C)CC2)cc1Nc1ncc(-c2ccc(Cl)c(O[C@@H](C)Cn3cnnn3)c2)cn1` [Example 569, (S)-(3-((5-(3-((1-(1H-tetrazol-1-yl)propan-2-yl)oxy)-4-chlorophenyl)pyrimidin-2-yl)amino)-4-methoxyphenyl) (4-methylpiperazin-1-yl)methanone], the pIC50 was over 8.00.
Work on `COc1ccc(C(=O)N2C[C@@H](C)N[C@@H](C)C2)cc1Nc1ncc(-c2ccc(Cl)c(O[C@@H](C)Cn3cnnn3)c2)cn1` [Example 570, (3-((5-(3-(((S)-1-(1H-tetrazol-1-yl)propan-2-yl)oxy)-4-chlorophenyl)pyrimidin-2-yl)amino)-4-methoxyphenyl) (cis-3,5-dimethylpiperazin-1-yl)methanone] yielded a pIC50 of over 8.00.
Work on `C[C@@H](Cn1cnnn1)Oc1cc(-c2cnc(Nc3cn(CC4CCN(C(=O)OC(C)(C)C)C4)nc3C(F)(F)F)nc2)ccc1Cl` (stereo partly drawn) [Example 571, tert-butyl 3-((4-((5-(3-(((S)-1-(1H-tetrazol-1-yl)propan-2-yl)oxy)-4-chlorophenyl)pyrimidin-2-yl)amino)-3-(trifluoromethyl)-1H-pyrazol-1-yl)methyl) pyrrolidine-1-carboxylate] yielded a pIC50 of at most 7.00.
`C[C@@H](Cn1cnnn1)Oc1cc(-c2cnc(Nc3cn(CC4CCNC4)nc3C(F)(F)F)nc2)ccc1Cl` (stereo partly drawn) [Example 572, 5-(3-(((S)-1-(1H-tetrazol-1-yl)propan-2-yl)oxy)-4-chlorophenyl)-N-(1-(pyrrolidin-3-ylmethyl)-3-(trifluoromethyl)-1H-pyrazol-4-yl)pyrimidin-2-amine] showed a pIC50 of over 8.00.
`COc1ccc(C(=O)N2CCCN(C3COC3)CC2)cc1Nc1ncc(-c2ccc(Cl)c(O[C@@H](C)Cn3cnnn3)c2)cn1` [Example 573, (S)-(3-((5-(3-((1-(1H-tetrazol-1-yl)propan-2-yl)oxy)-4-chlorophenyl)pyrimidin-2-yl)amino)-4-methoxyphenyl) (4-(oxetan-3-yl)-1,4-diazepan-1-yl)methanone] was tested, and the pIC50 was over 8.00.
`C[C@@H](Cn1cnnn1)Oc1cc(-c2cnc(Nc3cn(CC4CCN(C5COC5)C4)nc3C(F)(F)F)nc2)ccc1Cl` (stereo partly drawn) [Example 574, 5-(3-(((S)-1-(1H-tetrazol-1-yl)propan-2-yl)oxy)-4-chlorophenyl)-N-(1-((1-(oxetan-3-yl)pyrrolidin-3-yl)methyl)-3-(trifluoromethyl)-1H-pyrazol-4-yl)pyrimidin-2-amine] showed a pIC50 of over 8.00.
